This is an account of results in ChEMBL document CHEMBL1150311, “4-Methyl-5-phenyl triazoles as selective inhibitors of 11beta-hydroxysteroid dehydrogenase type I” (Bioorg Med Chem Lett, 2008).

Data set [1] concerns Mus musculus. Put plainly: Inhibition of [3H]cortisone to [3H]cortisol conversion in mouse at 10 mg/kg, po administered as single dose after 16 hrs. Type of data set: functional.
Data set [2] deals with T1, Nuclear receptor subfamily 1 group I member 2 (Homo sapiens, UniProt O75469).
T1 sequence (O75469 whole entry): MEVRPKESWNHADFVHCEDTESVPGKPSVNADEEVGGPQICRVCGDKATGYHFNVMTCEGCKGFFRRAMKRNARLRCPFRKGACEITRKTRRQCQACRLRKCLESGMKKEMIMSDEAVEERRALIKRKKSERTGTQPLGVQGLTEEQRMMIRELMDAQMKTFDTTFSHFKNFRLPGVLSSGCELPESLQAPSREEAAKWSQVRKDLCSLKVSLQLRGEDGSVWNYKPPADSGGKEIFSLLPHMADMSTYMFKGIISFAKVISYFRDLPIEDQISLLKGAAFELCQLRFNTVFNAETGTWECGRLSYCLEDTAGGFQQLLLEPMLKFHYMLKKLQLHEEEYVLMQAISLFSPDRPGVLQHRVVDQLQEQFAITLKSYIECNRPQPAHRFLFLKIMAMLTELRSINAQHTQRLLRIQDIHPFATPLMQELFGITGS
Put plainly: Agonist activity at human PXR at 10 uM. Type of data set: functional.

Data set [3] relates to Mus musculus. In words: Inhibition of [3H]cortisone to [3H]cortisol conversion in mouse at 10 mg/kg, po administered as single dose after 4 hrs. The format is functional.
In data set [4] the target is 11-beta-hydroxysteroid dehydrogenase 1 (Mus musculus, UniProt P50172). Put plainly: Inhibition of mouse 11beta HSD1 by SPA assay.
Data set [5] has as its target T2, 11-beta-hydroxysteroid dehydrogenase type 2 (Homo sapiens, UniProt P80365).
T2 sequence (P80365 whole entry): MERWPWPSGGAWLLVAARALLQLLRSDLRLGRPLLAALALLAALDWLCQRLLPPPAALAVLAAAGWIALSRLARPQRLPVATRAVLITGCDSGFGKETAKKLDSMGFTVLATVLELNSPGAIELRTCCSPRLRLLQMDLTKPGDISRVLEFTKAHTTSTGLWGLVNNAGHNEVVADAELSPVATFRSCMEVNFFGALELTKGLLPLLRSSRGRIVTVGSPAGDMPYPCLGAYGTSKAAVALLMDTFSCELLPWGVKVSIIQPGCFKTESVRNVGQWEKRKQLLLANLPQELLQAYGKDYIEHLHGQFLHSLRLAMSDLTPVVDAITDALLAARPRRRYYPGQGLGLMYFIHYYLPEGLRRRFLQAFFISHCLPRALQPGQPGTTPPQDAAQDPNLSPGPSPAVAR
Put plainly: Inhibition of human 11beta HSD2.

The target in data set [6] is T3, 11-beta-hydroxysteroid dehydrogenase type 2 (Mus musculus, UniProt P51661).
T3 sequence (P51661 whole entry): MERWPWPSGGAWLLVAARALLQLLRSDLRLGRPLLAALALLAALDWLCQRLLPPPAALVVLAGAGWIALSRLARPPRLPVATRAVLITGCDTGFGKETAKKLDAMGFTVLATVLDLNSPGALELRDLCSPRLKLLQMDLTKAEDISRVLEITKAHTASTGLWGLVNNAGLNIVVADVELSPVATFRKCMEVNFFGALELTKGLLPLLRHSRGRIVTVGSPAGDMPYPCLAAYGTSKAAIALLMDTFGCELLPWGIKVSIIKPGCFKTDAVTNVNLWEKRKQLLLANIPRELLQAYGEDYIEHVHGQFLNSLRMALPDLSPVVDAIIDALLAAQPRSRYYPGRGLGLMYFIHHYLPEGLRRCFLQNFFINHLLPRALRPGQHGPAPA
Put plainly: Inhibition of mouse 11beta HSD2.

The target in data set [7] is T1, Nuclear receptor subfamily 1 group I member 2. In words: Agonist activity at human PXR. Type of data set: functional.
The target in data set [8] is 11-beta-hydroxysteroid dehydrogenase 1 (Homo sapiens, UniProt P28845). In words: Inhibition of human 11beta HSD1 by SPA assay.
Data set [9] deals with T4, 11-beta-hydroxysteroid dehydrogenase type 2 (Homo sapiens) (UniProt P80365).
T4 sequence (whole entry): T2 sequence (P80365 whole entry)
The note with it: at 4 µM.
Description: Inhibition of human 11beta HSD2 at 4 uM

In data set [10] the test system is Mus musculus. Put plainly: Inhibition of [3H]cortisone to [3H]cortisol conversion in mouse at 10 mg/kg, po administered as single dose after 1 hr. Type of data set: functional.

Chain of 11-beta-hydroxysteroid dehydrogenase 1 (Homo sapiens, UniProt P28845) (P28845 whole entry): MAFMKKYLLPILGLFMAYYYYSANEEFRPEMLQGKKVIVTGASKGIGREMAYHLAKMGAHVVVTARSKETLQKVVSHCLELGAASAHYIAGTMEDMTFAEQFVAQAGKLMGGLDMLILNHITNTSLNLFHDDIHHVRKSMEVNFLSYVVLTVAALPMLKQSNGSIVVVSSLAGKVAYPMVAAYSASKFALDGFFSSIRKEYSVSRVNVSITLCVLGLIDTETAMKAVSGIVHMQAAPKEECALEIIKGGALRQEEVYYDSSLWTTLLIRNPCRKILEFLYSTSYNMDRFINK
Chain of 11-beta-hydroxysteroid dehydrogenase 1 (Mus musculus, UniProt P50172) (P50172 whole entry): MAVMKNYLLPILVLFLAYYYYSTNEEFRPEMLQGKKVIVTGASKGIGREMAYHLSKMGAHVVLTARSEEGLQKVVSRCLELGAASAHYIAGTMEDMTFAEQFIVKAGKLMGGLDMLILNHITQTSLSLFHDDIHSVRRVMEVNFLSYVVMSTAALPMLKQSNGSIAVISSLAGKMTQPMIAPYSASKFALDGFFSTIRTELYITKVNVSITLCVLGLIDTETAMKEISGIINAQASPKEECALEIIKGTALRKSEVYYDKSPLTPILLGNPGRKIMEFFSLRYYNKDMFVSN

Take `Cn1c(-c2ccc(-c3ccc(S(C)(=O)=O)cc3)cc2Cl)nnc1C1(c2ccc(Cl)cc2)CCC1`: the inhibition in vivo at 10 mg/kg is -5% in data set [1] and 20% in [3]. In addition, the Activity in data set [2] came to 2%. Also, the IC50 in [4] is 1.2 nM; in data set [5], > 4000 nM; in data set [6] it was > 4000 nM; in data set [8], 1.7 nM. In addition, in data set [7], the concentration for a half-maximal effect (EC50) was > 25000 nM.

For the compound `Cn1c(-c2ccc(-c3ccccc3)cc2Cl)nnc1C1(c2ccc(Cl)cc2)CCC1`, the inhibition in vivo at 10 mg/kg in data set [1] came out at 85%; in data set [3], 99%. For the same compound, the results for the IC50 in data set [4] and in data set [8] were 1.4 nM and 1 nM, respectively. Besides, the response in [7] was half-maximal at 1700 nM (EC50).

Consider `Cn1c(-c2ccc(-c3ccncc3)cc2Cl)nnc1C1(c2ccc(Cl)cc2)CCC1`, for which the inhibition in vivo at 10 mg/kg turned out to be 8% in [1] and 39% in [3]. Further, the Activity in [2] is given as 42%. Further, the figures for the IC50 in data set [4], in [6] and in data set [8] were 2 nM, > 4000 nM and 1 nM, respectively. The compound also returned an EC50 in [7] of 7700 nM.

Regarding `Cc1cn(-c2ccc(-c3nnc(C4(c5ccc(Cl)cc5)CCC4)n3C)c(Cl)c2)c(C2CC2)n1`, the inhibition in vivo at 10 mg/kg turned out to be 7% in [1] and 60% in [3]. In addition, the Activity in data set [2] stood at 13%. Also, the IC50 in data set [4] is 6 nM; in [6], > 4000 nM; in data set [8], 9.8 nM. Further, in [7], the EC50 came to 1300 nM.

Take `Cn1c(-c2ccc(-c3ccccn3)cc2Cl)nnc1C1(c2ccc(Cl)cc2)CCC1`: the figures for the inhibition in vivo at 10 mg/kg in data set [1] and in [3] were -5% and 41%, respectively. In [2], the Activity is 98%. Moreover, the IC50 in data set [4] was 1.4 nM; in data set [6], > 4000 nM; in [8], 1 nM. The compound further gave an EC50 in data set [7] of 2400 nM.

As to `CCS(=O)(=O)c1ccccc1-c1ccc(-c2nnc(C3(c4ccc(Cl)cc4)CCC3)n2C)c(Cl)c1`, the inhibition in vivo at 10 mg/kg is 6% in data set [1] and 56% in data set [3]. The Activity in data set [2] is on record as 74%. The IC50 in [4] is 1.2 nM; in data set [5], > 4000 nM; in [6] it was > 4000 nM; in data set [8], 0.98 nM. Also, a half-maximal response in data set [7] (EC50) required 700 nM.

Consider `Cn1c(-c2ccc(-c3cccnc3)cc2Cl)nnc1C1(c2ccc(Cl)cc2)CCC1`, for which the inhibition in vivo at 10 mg/kg in data set [1] is 26%; in data set [3], 100%. In data set [2], the Activity was determined as 35%. The IC50 is 1.3 nM in [4], > 4000 nM in data set [6] and 1 nM in [8]. The compound also returned an EC50 in data set [7] of 3600 nM.

Take `CCSc1ccccc1-c1ccc(-c2nnc(C3(c4ccc(Cl)cc4)CCC3)n2C)c(Cl)c1`: the values for the inhibition in vivo at 10 mg/kg in data set [1] and in data set [3] were 1% and 51%, respectively. The compound also yielded an inhibition in data set [9] of 54%. In addition, the Activity in data set [2] is reported as 48%. Further, the half-inhibitory concentration (IC50) in data set [4] is 4.7 nM; in data set [6], > 4000 nM; in data set [8] it was 11 nM. For the same compound, in data set [7], the half-maximal effective concentration (EC50) was found to be 1700 nM.

Consider `Cn1c(-c2ccc(-n3ccnc3C(F)(F)F)cc2Cl)nnc1C1(c2ccc(Cl)cc2)CCC1`, for which the inhibition in vivo at 10 mg/kg in data set [1] was found to be 20%; in [3], 58%. The Activity in data set [2] was found to be 24%. Also, the IC50 is 0.96 nM in [4], > 4000 nM in data set [6] and 0.98 nM in data set [8]. The 50% effective concentration (EC50) in [7] is 3200 nM.

For `Cn1c(-c2ccc(-n3ccnc3S(C)(=O)=O)cc2Cl)nnc1C1(c2ccc(Cl)cc2)CCC1`, the Activity in [2] came out at 23%. The IC50 in [4] is 9.4 nM; in data set [6], > 4000 nM; in data set [8], 14 nM. In [7], this compound showed an EC50 of 7900 nM.

On to `Cc1nccn1-c1ccc(-c2nnc(C3(c4ccc(Cl)cc4)CCC3)n2C)c(Cl)c1`, for which the Activity in data set [2] was 22%. Besides, the IC50 in data set [4] was 9.6 nM; in [6], > 4000 nM; in data set [8] it was 2.6 nM. For the same compound, the EC50 in data set [7] is > 25000 nM.

Consider `COc1ccc(-c2nnc(C3(c4ccc(Cl)cc4)CCC3)n2C)cc1F`, for which the inhibition in vivo at 10 mg/kg in data set [10] was 10%; in data set [3] it was -1%. For the same compound, the IC50 in data set [4] is 42 nM; in data set [5] it was > 4000 nM; in [6] it was > 4000 nM; in [8], 3 nM.

Take `Cn1c(-c2ccc(-n3ccnc3)cc2Cl)nnc1C1(c2ccc(Cl)cc2)CCC1`: the inhibition in vivo at 10 mg/kg in data set [1] came out at 10%; in data set [3] it was 78%. The Activity in data set [2] was found to be 21%. Moreover, the 50% inhibitory concentration (IC50) in [4] was 2.8 nM; in data set [6], > 4000 nM; in data set [8], 1 nM. Moreover, a half-maximal effect in [7] (EC50) was put at 12000 nM.

For `Cn1c(-c2ccc(-n3ccnc3)cc2)nnc1C1(c2ccc(Cl)cc2)CCC1`, the inhibition in vivo at 10 mg/kg was found to be 79% in data set [10] and 44% in data set [3]. Besides, the IC50 in [4] was 46 nM; in data set [5], > 4000 nM; in data set [6] it was > 4000 nM; in data set [8] it was 3.5 nM.

On to `CCS(=O)(=O)c1cccc(-c2ccc(-c3nnc(C4(c5ccc(Cl)cc5)CCC4)n3C)c(Cl)c2)c1`, for which the values for the inhibition in vivo at 10 mg/kg in data set [1] and in data set [3] were 29% and 93%, respectively. The same compound had an inhibition in data set [9] of 59%. Also, the Activity in [2] is recorded as -31%. For the same compound, the values for the IC50 in data set [4], in data set [6] and in data set [8] were 0.98 nM, > 4000 nM and 0.98 nM, respectively. Further, the EC50 in data set [7] is 25000 nM.

As for `Cn1c(-c2ccc(Cl)cc2)nnc1C1(c2ccc(Cl)cc2)CCC1`, the inhibition in vivo at 10 mg/kg was determined as 20% in data set [10] and 14% in [3]. Also, the IC50 is 43 nM in [4], > 4000 nM in data set [5], > 4000 nM in [6] and 2.7 nM in data set [8].

As to `Cn1c(-c2ccc(-c3ccccc3)cc2)nnc1C1(c2ccc(Cl)cc2)CCC1`, the results for the inhibition in vivo at 10 mg/kg in data set [10] and in [3] were 86% and 90%, respectively. For the same compound, the IC50 is 4 nM in data set [4], > 4000 nM in data set [5], > 4000 nM in data set [6] and 11 nM in data set [8].

As for `CCS(=O)(=O)c1ccc(-c2ccc(-c3nnc(C4(c5ccc(Cl)cc5)CCC4)n3C)c(Cl)c2)cc1`, the inhibition in vivo at 10 mg/kg in data set [1] was determined as 16%; in data set [3], 71%. In data set [9], this compound registered an inhibition of 75%. In addition, in data set [2], the Activity is reported as -8%. Further, the IC50 was 0.98 nM in data set [4], > 4000 nM in [6] and 2.1 nM in [8]. The EC50 in data set [7] was > 25000 nM.

Take `Cn1c(-c2ccc(-c3cccc(S(C)(=O)=O)c3)cc2Cl)nnc1C1(c2ccc(Cl)cc2)CCC1`: the inhibition in vivo at 10 mg/kg was found to be 36% in data set [1] and 96% in [3]. Moreover, in [2], the Activity was -5%. The IC50 in data set [4] was 0.98 nM; in data set [5], > 4000 nM; in data set [6] it was > 4000 nM; in [8], 0.98 nM. Besides, in data set [7], the EC50 is > 25000 nM.

Take `Cn1c(-c2ccccc2C(F)(F)F)nnc1C1(c2ccc(Cl)cc2)CCC1`: the inhibition in vivo at 10 mg/kg was found to be 73% in data set [10] and 63% in data set [3]. In addition, the IC50 in data set [4] was 4 nM; in data set [5], > 4000 nM; in data set [6], > 4000 nM; in data set [8] it was 2 nM.

For orientation: inhibition in vivo means the relative decrease from the control value, in per cent. In general, IC50 refers to the midpoint of a concentration-inhibition curve. Lower therefore signals higher potency. One may read the EC50 as the concentration that produces a half-maximal response. A higher EC50 goes with weaker potency. Broadly, the inhibition is the share of the control response that was lost under treatment. Lower therefore signals a weak effect.
